Assay results published in PubChem BioAssay (NCI).
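Assay format: 96-well plates, 48-hour exposure. The concentration for 50% growth inhibition is given as GI50. TGI: total growth inhibition.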

How the values were obtained:
Test in all cases: inhibition of tumour cell growth, NCI panel, 48 h
[1] = system: COLO 205 colon
[2] = system: LOX IMVI melanoma
[3] = system: SW-620 colon
[4] = system: SF-268 CNS
[5] = system: MDA-MB-231 breast
[6] = system: NCI-H226 lung
[7] = system: NCI-H460 lung
[8] = system: HCT-15 colon
[9] = system: SK-MEL-28 melanoma
[10] = system: M14 melanoma
[11] = system: ACHN renal
[12] = system: BT-549 breast
[13] = system: HCT-116 colon
[14] = system: CAKI-1 renal
[15] = system: MALME-3M melanoma
[16] = system: MOLT-4 leukemia
[17] = system: OVCAR-8 ovarian
[18] = system: SK-MEL-5 melanoma
[19] = system: OVCAR-3 ovarian
[20] = system: K-562 leukemia
[21] = system: UACC-62 melanoma
[22] = system: SN12C renal
[23] = system: OVCAR-5 ovarian
[24] = system: PC-3 prostate
[25] = system: UO-31 renal
[26] = system: A498 renal
[27] = system: T-47D breast
[28] = system: UACC-257 melanoma
[29] = system: KM12 colon
[30] = system: MCF7 breast
[31] = system: RPMI-8226 leukemia
[32] = system: MDA-MB-435
[33] = system: HT29 colon
[34] = system: 786-0 renal
[35] = system: SF-295 CNS
[36] = system: SNB-75 CNS
[37] = system: HOP-92 NSCLC
[38] = system: DU-145 prostate
[39] = system: NCI-H522 lung
[40] = system: HCC-2998 colon
[41] = system: OVCAR-4 ovarian
[42] = system: HS 578T breast
[43] = system: HL-60(TB) leukemia
[44] = system: IGROV1 ovarian
[45] = system: SR leukemia
[46] = system: CCRF-CEM leukemia
[47] = system: A549 NSCLC
[48] = system: U251 CNS
[49] = system: SF-539 CNS
[50] = system: SK-MEL-2 melanoma
[51] = system: SNB-19 CNS
[52] = system: RXF 393 renal
[53] = system: NCI-H23 lung
[54] = system: TK-10 renal
[55] = system: HOP-62 NSCLC
[56] = system: NCI/ADR-RES ovarian
[57] = system: SK-OV-3 ovarian

Cc1ccc2c(NCCCN(C)C)c3c(C)nn(C)c3nc2c1
GI50 [1]: 3.03 µM
TGI [1]: 11.4 µM
GI50 [2]: 2220 nM
TGI [2]: 5.64 µM
GI50 [3]: 2960 nM
TGI [3]: 35.5 µM
GI50 [4]: 4.18 µM
TGI [4]: 23.9 µM
GI50 [5]: 3.86 µM
TGI [5]: 19.4 µM
GI50 [6]: 3.34 µM
TGI [6]: 27 µM
GI50 [7]: 2960 nM
TGI [7]: 10.2 µM
GI50 [8]: 2590 nM
TGI [8]: 18.3 µM
GI50 [9]: 4.44 µM
TGI [9]: 17.3 µM
GI50 [10]: 4.34 µM
TGI [10]: 17.6 µM
GI50 [11]: 2250 nM
TGI [11]: 16.9 µM
GI50 [12]: 13.7 µM
TGI [12]: 31 µM
GI50 [13]: 3.04 µM
TGI [13]: 25.1 µM
GI50 [14]: 3.04 µM
TGI [14]: 38.1 µM
GI50 [15]: 4.97 µM
TGI [15]: 22 µM
GI50 [16]: 5.11 µM
TGI [16]: 33.1 µM
GI50 [17]: 3.73 µM
TGI [17]: 21.7 µM
GI50 [18]: 3.66 µM
TGI [18]: 14.3 µM
GI50 [19]: 4.13 µM
TGI [19]: 24.8 µM
GI50 [20]: 3.14 µM
TGI [20]: > 100 µM
GI50 [21]: 3.9 µM
TGI [21]: 16.4 µM
GI50 [22]: 3.52 µM
TGI [22]: 29.9 µM
GI50 [23]: 3.69 µM
TGI [23]: 22.4 µM
GI50 [24]: 3.59 µM
TGI [24]: 16.3 µM
GI50 [25]: 2680 nM
TGI [25]: 14 µM
GI50 [26]: 1800 nM
TGI [26]: 7.86 µM
GI50 [27]: 9.5 µM
TGI [27]: 98.8 µM
GI50 [28]: 3.9 µM
TGI [28]: 14.4 µM
GI50 [29]: 4.55 µM
TGI [29]: 31.8 µM
GI50 [30]: 2530 nM
TGI [30]: 7.04 µM
GI50 [31]: 3.3 µM
TGI [31]: 14.4 µM
GI50 [32]: 3.28 µM
TGI [32]: 14 µM
GI50 [33]: 2620 nM
TGI [33]: 8.88 µM
GI50 [34]: 4.99 µM
TGI [34]: 26.5 µM
GI50 [35]: 3.83 µM
TGI [35]: 28.4 µM
GI50 [36]: 1890 nM
TGI [36]: 10.9 µM
GI50 [37]: 1600 nM
TGI [37]: 5.99 µM
GI50 [38]: 3.88 µM
TGI [38]: 37.7 µM
GI50 [39]: 2760 nM
TGI [39]: 12.7 µM
GI50 [40]: 5.83 µM
TGI [40]: 22.4 µM
GI50 [41]: 3.06 µM
TGI [41]: 16.1 µM
GI50 [42]: 4.24 µM
TGI [42]: 33.5 µM
GI50 [43]: 5.08 µM
TGI [43]: 22.9 µM
GI50 [44]: 4.17 µM
TGI [44]: 29.6 µM
GI50 [45]: 3.36 µM
TGI [45]: > 100 µM
GI50 [46]: 5.09 µM
TGI [46]: 88.8 µM
GI50 [47]: 3.45 µM
TGI [47]: 25.1 µM
GI50 [48]: 4.77 µM
TGI [48]: 29.4 µM
GI50 [49]: 4.7 µM
TGI [49]: 19.6 µM
GI50 [50]: 3.64 µM
TGI [50]: 11.1 µM
GI50 [51]: 3.96 µM
TGI [51]: 39.1 µM
GI50 [52]: 2710 nM
TGI [52]: 12.1 µM
GI50 [53]: 5.29 µM
TGI [53]: 25.3 µM
GI50 [54]: 2890 nM
TGI [54]: 14 µM
GI50 [55]: 6.46 µM
TGI [55]: 60.2 µM
GI50 [56]: 3.34 µM
TGI [56]: 66.4 µM
GI50 [57]: 7.26 µM
TGI [57]: 68.7 µM
